Key:
[1] = test system: Pellicularia sasakii; test: Pellicularia test (rice plants); type: in vivo; conditions: spray on rice plants, infection of leaf sheaths rated after 5 to 8 days; compared with Zinksalz der Athylenbis-dithiocarbamidsäure
Source text: • Lösungsmittel: 11,75 Gewichtsteile Aceton • Dispergiermittel: 0,75 Gewichtsteile Alkyl-arylpolyglykoläther • Wasser: 987,50 Gewichtsteile • andere Zusätze: - Gewichtsteile -
Man vermischt die für die gewünschte Wirkstoffkonzentration in der Spritzflüssigkeit nötige Wirkstoffmenge mit der angegebenen Menge des Lösungsmittels und des Dispergiermittels und verdünnt das Konzentrat mit der angegebenen Menge Wasser.
Mit der Spritzflüssigkeit bespritzt man 30 etwa 2-4 Wochen alte Reispflanzen bis zur Tropfnässe. Die Pflanzen verbleiben bis zum Abtrocknen in einem Gewächshaus bei Temperaturen von 22 bis 24°C und einer relativen Luftfeuchtigkeit von etwa 70 %. Die Pflanzen werden mit einer auf Malzagar gezogenen Kultur von Pellicularia sasakii inokuliert und bei 28 bis 30°C sowie 100 % relativer Luftfeuchtigkeit aufgestellt.
Bei den mit Pellicularia sasakii infizierten Pflanzen wird der Befall nach 5 bis 8 Tagen an den Blattscheiden ebenfalls im Verhältnis zur unbehandelten, aber infizierten Kontrolle bestimmt. Die Auswertung erfolgt in Wertzahlen von 1 bis 9. 1 bedeutet 100%ige Wirkung, 3= gute Wirkung, 5 = mäßige Wirkung und 9 = keine Wirkung.

[2] = test system: Botrytis cinerea; test: Botrytis test (beans) / protective; type: in vivo; conditions: protective spray on Phaseolus vulgaris, inoculation after 24 h, lesion size rated 3 days after inoculation; compared with Tetramethyl-thiuramidisulfid
Source text: Botrytis-Test (Bohnen) / protektiv
• Lösungsmittel: 4,7 Gewichtsteile Aceton • Dispergiermittel: 0,3 Gewichtsteile Alkyl-arylpolyglykoläther • Wasser: 95,0 Gewichtsteile
Man vermischt die für die gewünschte Wirkstoffkonzentration in der Spritzflüssigkeit nötige Wirkstoffmenge mit der angegebenen Menge des Lösungsmittels und verdünnt das Konzentrat mit der angegebenen Menge Wasser, welches die genannten Zusätze enthält.
Mit der Spritzflüssigkeit bespritzt man Pflanzen von Phaseolus vulgaris im 2-Blattstadium bis zur Tropfnässe. Nach 24 Stunden werden auf jedes Blatt 2 kleine mit Botrytis cinerea bewachsene Agarstückchen aufgelegt. Die inokulierten Pflanzen werden in einer abgedunkelten, feuchten Kammer bei 20°C aufgestellt. 3 Tage nach der Inokulation wird die Größe der Befallsflecken auf den Blättern bonitiert.
Die erhaltenen Boniturwerte werden auf Prozent Befall umgerechnet. 0 % bedeutet keinen Befall, 100 % bedeutet, daß der Befallsfleck vollständig ausgebildet ist.

O=C1CC(C2C=CCC2)C(=O)N1c1cc(Cl)cc(Cl)c1 (centres unmarked) [Beispiel 1, N-(3,5-Dichlorphenyl)-△ ^2-cyclopenten-1-yl-bernsteinsäureimid] was tested, and the Wirkung [1] was “gute, dem bekannten Zinksalz der Athylenbis-dithiocarbamidsäure überlegene Wirkung” and the Wirkung [2] was “gute, dem bekannten Tetramethyl-thiuramidisulfid überlegene Wirkung”.

From patent publication EP0001395A2, “Substituted N-phenyl-2,5-pyrrolidinones, method for their preparation and their use as fungicides” (BAYER AG, priority 1977, dated 1979)
